Test results reported in publication PMC10744608, “Simplified Synthesis of Renieramycin T Derivatives to Target Cancer Stem Cells via β-Catenin Proteasomal Degradation in Human Lung Cancer” (Marine Drugs, 2023).

How the values were obtained:
[1] = test system: A549, H23, and H292 cells; assay: Immunofluorescence of stem cell markers and transcription factors; type: cell-based, human; conditions: A549, H23, and H292, 50 nM, 24 h
Procedure: (§1) A549, H23, and H292 NSCLC cells were seeded at a concentration of 1 × 10^4 cells per well in 96-well plates. The cells were exposed to different concentrations of DH_32 (0, 25, 50, and 100 nM) for 24 h, after which the medium was removed. Following that, the cells were subjected to fixation with 4% paraformaldehyde for 15 min. The cells were permeabilization with 0.5% Triton-X for 5 min, followed by the blocking of non-specific proteins with 10% FBS in 0.1% Triton-X PBS for 1 h at room temperature. The cells were exposed to a 1:400 dilution of primary antibodies (CD133, CD44, ALDH1A1, OCT4, NANOG, SOX2, and β-catenin) and incubated at 4 °C overnight. On the subsequent day, the cells were treated with a 1:500 dilution of the following secondary antibodies: Alexa Fluor 594-conjugated goat anti-rabbit IgG (H+L) (Invitrogen) and Alexa Fluor 488-conjugated goat anti-mouse IgG (H+L) (Invitrogen). Simultaneously, the localization of nuclei was stained with Hoechst 33342 for 1 h at room temperature. The cells were rinsed with PBS and then covered with 50% glycerol. The images were captured by a fluorescence microscope (Olympus IX 51 with DP70; Olympus America Inc., Center valley, PA, USA). The fluorescence intensity was measured by Image J software. RT acted as the positive control for this experiment.

[2] = test system: β-catenin in A549, H292, and H23 cells; assay: Immunofluorescence of β-catenin; type: cell-based, human; conditions: 24 h; DH_32 0–100 nM, RT 25 nM
Procedure: as §1

H23 cells [3] = assay: Nuclear staining assay (Hoechst 33342/PI); type: cell-based, human; conditions: H23, 0.5 μM, 24 h; for percentage of apoptosis: Hoechst 33342; for percentage of dead cells: PI staining
Procedure: (§2) The assessment of apoptosis and dead cell counts was performed through costaining with Hoechst 33342 and propidium iodide (PI). Human NSCLCs (1 × 10^4 cells per well) were seeded in a 96-well plate, incubated at 37 °C, and exposed to all right-half RT analogs at a concentration of 0.5 μM. After treatment, the cells were rinsed with PBS and subjected to co-staining with Hoechst 33342 (10 μg/mL) and propidium iodide (PI) (0.02 μg/mL) for 30 min at 37 °C. Fluorescence microscopy (Olympus 1X51 with a DP70 digital camera, Tokyo, Japan) was utilized to observe the fragmented nuclei indicative of apoptotic cells stained with Hoechst 33342 and the positive PI staining for dead cells. Subsequently, the percentages of apoptosis and dead cells were calculated. In this experiment, RT at a concentration of 0.5 μM served as the positive control.

A549 cells [4] = assay: Nuclear staining assay (Hoechst 33342/PI); type: cell-based, human; conditions: A549, 0.5 μM, 24 h; for percentage of apoptosis: Hoechst 33342; for percentage of dead cells: PI staining
Procedure: as §2

H292 cells [5] = assay: Nuclear staining assay (Hoechst 33342/PI); type: cell-based, human; conditions: H292, 0.5 μM, 24 h; for percentage of apoptosis: Hoechst 33342; for percentage of dead cells: PI staining
Procedure: as §2

[6] = test system: human dermal papilla cells (DP); assay: MTT cell viability assay, normal cells; type: cell-based; conditions: for IC50: DP normal cells, 24 h treatment, MTT
H23 cells [7] = assay: Immunoprecipitation of β-catenin–ubiquitin complex; type: cell-based, human; conditions: H23, 50 nM, compared to cells treated with RT
Procedure: (§3) The DH_32-treated A549, H23, and H292 cells were collected using cold PBS and incubated on ice in a lysis buffer. This buffer consisted of 50 mM 4-(2-hydroxyethyl)-1-piperazineethanesulfonic acid at pH 7.5, 150 mM NaCl, 5 mM EDTA, 1% Triton X-100, 1 mM phenylmethylsulfonyl fluoride, and 2 μg/mL pepstatin A (catalog no: 9803, Cell Signaling), along with complete protease inhibitor cocktail tablets from the EASYpack (Roche, catalog no: 04693116001). The incubation took place for 40 min on ice, followed by centrifugation at 12,000× g at 4 °C for 15 min.
(§4) Subsequently, immunoprecipitation was carried out using the Dynabeads™ Protein G Immunoprecipitation Kit from Thermo Fisher Scientific Inc. (Waltham, MA, USA). The magnetic beads were prepared and added to 100 μL of Ab binding and washing buffer that contained β-catenin (2 μL) for 15 min on rotation at room temperature. The complex of magnetic beads and antibodies was re-suspended in a protein lysis buffer and left to incubate at 4 °C overnight, facilitating the binding of the β-catenin antigen with the magnetic bead–antibody complex. The magnetic bead–Ab–Ag complex was washed three times using 200 μL of washing buffer. The magnetic bead–antibody–antigen complex was resuspended in the lysis buffer (30 μL), and the 6x sample buffer (5 μL) was denatured by heating at 95 °C for 5 min. The antigen–antibody complex was loaded onto a 12% sodium dodecyl sulfate polyacrylamide gel electrophoresis (SDS-PAGE). Following gel separation, the proteins were transferred onto a nitrocellulose membrane with a pore size of 0.45 μm. After transfer, the membrane was placed in a mixture containing 5% nonfat dry milk in TBST (composed of 25 mm Tris-HCl, pH 7.4, 125 mm NaCl, and 0.05% Tween 20) for a duration of 1 h 30 min. Following this, the proteins were exposed to primary antibodies (Cell Signaling), specifically ubiquitin mouse mAb (cat no: 14049), and left to incubate overnight at 4 °C. […] Protein intensity was analyzed by using ImageJ software (Image J 1.52a, Rasband, W., National Institutes of Health, USA). […]

A549 cells [8] = assay: Immunoprecipitation of β-catenin–ubiquitin complex; type: cell-based, human; conditions: A549, 50 nM, compared to cells treated with RT
Procedure: as §3, §4

H292 cells [9] = assay: Immunoprecipitation of β-catenin–ubiquitin complex; type: cell-based, human; conditions: H292, 50 nM, compared to cells treated with RT
Procedure: as §3, §4

BEAS2B cells = assay: MTT cell viability assay, normal cells; type: cell-based, human; conditions: for IC50: BEAS2B normal cells, 24 h treatment, MTT

With `COC1=C(C)C(=O)C2=C(C1=O)[C@@H]1CN(Cc3ccc4ccccc4c3)[C@@H](C#N)[C@H](C2)N1C` [DH_32, (1R,4R,5S)-9-methoxy-8,11-dimethyl-3-(naphthalen-2-ylmethyl)-7,10-dioxo-1,2,3,4,5,6,7,10-octahydro-1,5-epiminobenzo[d]azocine-4-carbonitrile] as the molecule, how does the “fluorescence signals of stem cell markers CD133, CD44, and ALDH1A1” value [1] read?
Its value is “approximately 0.5 fold”.

What about the “fluorescence signals of stem cell transcription factors OCT4, NANOG, and SOX2” value [1] of the same molecule?
The value was “approximately 0.5 fold”.

And the “β-catenin level by immunofluorescence” value [2]?
Its value is “decrease in the fluorescence signal of β-catenin”.

And the percentage of apoptosis (H23 cells [3])?
The percentage of apoptosis was 39.29 ± 1.88%.

And the “percentage of dead cells” value (H23 cells [3])?
The value was 35.07 ± 1.67%.

And the percentage of apoptosis (A549 cells [4])?
Its percentage of apoptosis is 29.33 ± 0.51%.

And the “percentage of dead cells” value (A549 cells [4])?
Its value is 23.38 ± 0.96%.

What about the percentage of apoptosis (H292 cells [5]) of the same molecule?
The percentage of apoptosis was 34.13 ± 0.97%.

What about the “percentage of dead cells” value (H292 cells [5]) of the same molecule?
Its value is 29.82 ± 1.26%.

And the “selectivity index (SI)” value ([6]; DP cells versus A549)?
The value was 8.42.

And the “selectivity index (SI)” value ([6]; DP cells versus H23)?
Its value is 16.51.

And the “selectivity index (SI)” value ([6]; DP cells versus H292)?
The value was 23.40.

What about the IC50 ([6]; Homo sapiens, Human dermal papilla cell) of the same molecule?
Its IC50 is 34.2 ± 1.22 µM.

What about the “increase in level of β-catenin–ubiquitin complex” value (from here on “increase in level”) (H23 cells [7]) of the same molecule?
The value was “two-fold increase”.

What about the “increase in level” value (A549 cells [8]) of the same molecule?
Its value is 2.5 fold.

And the “increase in level” value (H292 cells [9])?
Its value is 3.5 fold.

And the “selectivity index (SI)” value (BEAS2B cells; BEAS2B cells versus A549)?
Its value is 1.25.

And the “selectivity index (SI)” value (BEAS2B cells; BEAS2B cells versus H23)?
Its value is 2.44.

And the “selectivity index (SI)” value (BEAS2B cells; BEAS2B cells versus H292)?
The value was 3.47.

And the IC50 (BEAS2B cells; Homo sapiens, BEAS-2B)?
Its IC50 is 5.06 ± 0.22 µM.

`CC=C(C)C(=O)OCC1c2c(c(O)c(C)c3c2OCO3)CC2C3C4=C(CC(C(C#N)N12)N3C)C(=O)C(C)=C(OC)C4=O` (centres unmarked) [RT, Renieramycin T] was tested. Which “β-catenin level by immunofluorescence” value [2] did it give?
Its value is “unaltered level of β-catenin”.

And the percentage of apoptosis (H23 cells [3])?
The percentage of apoptosis was 33.41 ± 0.53%.

And the “percentage of dead cells” value (H23 cells [3])?
The value was 31.15 ± 0.48%.

And the percentage of apoptosis (A549 cells [4])?
Its percentage of apoptosis is 24.95 ± 1.32%.

What about the “percentage of dead cells” value (A549 cells [4]) of the same molecule?
Its value is 21.60 ± 0.99%.

What about the percentage of apoptosis (H292 cells [5]) of the same molecule?
Its percentage of apoptosis is 29.63 ± 0.47%.

And the “percentage of dead cells” value (H292 cells [5])?
Its value is 26.31 ± 1.04%.

What about the IC50 [6] of the same molecule?
The IC50 was 13.7 ± 0.33 µM.

And the IC50 (BEAS2B cells)?
Its IC50 is 1.18 ± 0.02 µM.
